Source: patent US5912248A, “Excitatory amino acid receptor antagonists” (Eli Lilly and Company, priority 1996, dated 1999)

Test system: metabotropic glutamate receptors
Assay: displacement of 1S,3R-ACPD-sensitive [^3 H]glutamate binding to rat brain cell membranes
Details: crude membranes of rat forebrain
Description: The binding of [^3 H]glutamate was conducted with crude membranes of rat forebrain as described by Schoepp and True, Neuroscience Lett., 145, 100-104 (1992) and Wright et al., J. Neurochemistry 63, 938-945, 1994.

Row | SMILES | IC50 [nM] | activity in the binding test (in words)
1 | NC1(C(=O)O)CC(Sc2ccccc2)C2C(C(=O)O)C21 (stereo not drawn) [Example 1, 1SR,2RS,4SR,5SR,6SR-2-Amino-4-(phenylthio)bicyclo[3.1.0]hexane-2,6-dicarboxylic acid] | 242 | 
2 | NC1(C(=O)O)CC(SCc2ccco2)C2C(C(=O)O)C21 (stereo not drawn) [Example 8, 1SR,2RS,4RS,5SR,6SR-2-Amino-4-((2-furanylmethyl)thio)bicyclo[3.1.0]hexane-2,6-dicarboxylic acid] |  | essentially inactive
